# US20210252104A1, “ANTIBACTERIAL PEPTIDE MONOMERS AND COMBINATIONS FOR CO-THERAPY” (ARREVUS, INC., priority 2018, published 2021)
# Where two headings read alike, the source gives them in different places. Positions of bridges follow the written chain, without caps; N, C: chain ends. Non-standard residues stand in square brackets, D forms with d. Residues, ends and D or L forms follow the SMILES beside them. Chains are numbered I, II in the order given. *: point of attachment. X2 = CN(C)C(=N[C@@H](CCCNC(=N)N)C(=O)*)N(C)C; aThr = C[C@H](O)[C@H](N)C(=O)O; Ac6c = NC1(C(=O)O)CCCCC1; Dab = NCC[C@H](N)C(=O)O; Nva = CCC[C@H](N)C(=O)O; Pentanoyl = CCCCC(=O)*; Butyryl = CCCC(=O)*; NHNH2 = NN*
# Tests used:
# [1] = system: Acinetobacter baumannii BAA-1805 (MACI)
# [2] = system: K. pneumoniae K97/09
# [3] = system: K. pneumoniae K97/09; test: FIC checkerboard assay (combinations); format: cell-based; details: for Effect of combining antimicrobials on MIC: K97/09, with imipenem or colistin
# [4] = system: A. baumannii strain (BAA-1605); test: FIC checkerboard assay (combinations); format: cell-based; details: with imipenem (or colistin)
# [5] = system: K. Pneumoniae ATCC 13883
# [6] = system: A. Baumannii ATCC 19606
# [7] = system: P. aeruginosa ATCC 47085
# [8] = system: E. Coli ATCC 29222
# [9] = system: Burkholderia pseudomallei 1026b; format: in vivo; details: for B. pseudomallei load in survivals (CFU/spleen) / total number of samples analyzed/samples with CFU > 10^8: day 62; for B. pseudomallei load in survivals (CFU/spleen): mean of samples with <10^8 CFU/spleen; for Number of deaths: every 6 h for 21 days, 10 mice, to day 62; for total number of samples analyzed/samples with CFU > 10^8: spleens
# [10] = system: A. baumannii strain (BAA-1605); test: microbe, parasite or virus in culture; format: cell-based
# [11] = in vitro; details: rat, H-4-II-E cells (ATCC CRL-1548)
compound,measurement,setting,value
"I: H-[Ac6c]RPDKPRPYLGRPRPPRPVR[Dab]-NH2 / II: H-[Ac6c]RPDKPRPYLGRPRPPRPVR (amide I:21-II:C) [Gly11, (H-Chex-Arg-Pro-Asp-Lys-Pro-Arg-Pro-Tyr-Leu-Gly-Arg-Pro-Arg-Pro-Pro-Arg-Pro-Val-Arg)2-Dab-NH2]",MACI MIC,[1]; Acinetobacter baumannii (MACI),>256 µg/mL
same,KPC MIC,[2]; K97/09,>256 µg/mL
same,Effect of combining antimicrobials on MIC,[3],failed to exert any improvement in the MIC values
same,Effect of combining antimicrobials on MIC,[4],failed to exert any improvement in the MIC values
"CCCC(=O)N[C@@H](CCCNC(=N)N)C(=O)N1CCC[C@H]1C(=O)N[C@@H](CC(=O)O)C(=O)N[C@@H](CCCCN)C(=O)N1CCC[C@H]1C(=O)N[C@@H](CCCNC(=N)N)C(=O)N1CCC[C@H]1C(=O)N[C@@H](Cc1ccc(O)cc1)C(=O)N[C@@H](CC(C)C)C(=O)N1CCC[C@H]1C(=O)N[C@@H](CCCNC(=N)N)C(=O)N1CCC[C@H]1C(=O)N[C@@H](CCCNC(=N)N)C(=O)N1CCC[C@H]1C(=O)N1CCC[C@H]1C(=O)N[C@@H](CCCNC(=N)N)C(=O)N1CCC[C@H]1C(=O)N[C@H](C(=O)N[C@@H](CCCNC(=N)N)C(N)=O)C(C)C [Example 3, Bu-RPDKPRPYLPRPRPPRPVR-NH2] (Butyryl-RPDKPRPYLPRPRPPRPVR-NH2)",MIC,[5],2.2 ± 0.4 µM
same,MIC,[6],>100 µM
same,MIC,[7],96.3 ± 3.2 µM
same,MIC,[8],6.5 ± 2.6 µM
CCC[C@H](NC(=O)[C@H](CCC(=O)O)NC(=O)[C@@H](N)[C@H](C)O)C(=O)N[C@H](C(=O)N[C@@H](C)C(=O)N[C@@H](CC(C)C)C(=O)N[C@@H](CO)C(=O)N[C@@H](CCCNC(=N)N)C(=O)NC1(C(N)=O)CCCCC1)C(C)C [Allo-aca] (H-[aThr]E[Nva]VALSR[Ac6c]-NH2),MIC,[2]; K97/09,> 256 µg/mL
same,Effect of combining antimicrobials on MIC,[3],failed to exert any improvement in the MIC values
same,Effect of combining antimicrobials on MIC,[4],failed to exert any improvement in the MIC values
CC(C)(O/N=C(\C(=O)N[C@@H]1C(=O)N2C(C(=O)[O-])=C(C[n+]3ccccc3)CS[C@H]12)c1csc(N)n1)C(=O)O [Ceftazidime],Median survival (days post-challenge),[9]; Ceftazidime 150 mg/kg ip,56.5 days post-challenge
same,B. pseudomallei load in survivals (CFU/spleen),[9]; Ceftazidime 150 mg/kg ip,2.6 × 10^5 CFU/spleen
same,Number of deaths,[9]; Ceftazidime 150 mg/kg ip,6
same,total number of samples analyzed/samples with CFU > 10^8,[9]; Ceftazidime 150 mg/kg ip,4/1
same,Median survival (days post-challenge),[9]; Ceftazidime 300 mg/kg ip,(>50% survival)
same,B. pseudomallei load in survivals (CFU/spleen),[9]; Ceftazidime 300 mg/kg ip,2.4 × 10^5 CFU/spleen
same,Number of deaths,[9]; Ceftazidime 300 mg/kg ip,3
same,total number of samples analyzed/samples with CFU > 10^8,[9]; Ceftazidime 300 mg/kg ip,3/1
same,Survival rate at the 62-day endpoint,[9]; ceftazidime monotherapy 150 mg/kg,40%
same,Survival rate at the 62-day endpoint,[9]; ceftazidime monotherapy 300 mg/kg,70%
"I: H-[Ac6c]RPDKPRPYLPRPRPPRPVR[Dab]-NH2 / II: H-[Ac6c]RPDKPRPYLPRPRPPRPVR (amide I:21-II:C; C-terminus assumed) [Example A3-APO, (H-Chex-Arg-Pro-Asp-Lys-Pro-Arg-Pro-Tyr-Leu-Pro-Arg-Pro-Arg-Pro-Pro-Arg-Pro-Val-Arg)2-Dab]",MACI MIC,[1]; BAA-1805,32 to 64 µg/mL
same,KPC MIC,[2]; K97/09,32 to 64 µg/mL
"Ac-RPDKPRPYLPRPRPPRPVR-NH2 [Example 2, Ac-RPDKPRPYLPRPRPPRPVR-NH2]",MIC,[5],2.0 ± 0.2 µM
same,MIC,[6],>100 µM
same,MIC,[7],>100 µM
same,MIC,[8],3.6 ± 0.1 µM
"CC(C)C[C@H](NC(=O)[C@H](Cc1ccc(O)cc1)NC(=O)[C@@H]1CCCN1C(=O)[C@H](CCCNC(=N)N)NC(=O)[C@@H]1CCCN1C(=O)[C@H](CCCCN)NC(=O)[C@H](CC(=O)O)NC(=O)[C@@H]1CCCN1C(=O)[C@H](CCCNC(=N)N)N=C(N(C)C)N(C)C)C(=O)N1CCC[C@H]1C(=O)N[C@@H](CCCNC(=N)N)C(=O)N1CCC[C@H]1C(=O)N[C@@H](CCCNC(=N)N)C(=O)N1CCC[C@H]1C(=O)N1CCC[C@H]1C(=O)N[C@@H](CCCNC(=N)N)C(=O)N1CCC[C@H]1C(=O)N[C@H](C(=O)N[C@@H](CCCNC(=N)N)C(N)=O)C(C)C [Example 5, Gu-RPDKPRPYLPRPRPPRPVR-NH2] (X2-PDKPRPYLPRPRPPRPVR-NH2; N-terminus assumed)",MIC,[5],1.5 ± 0.4 µM
same,MIC,[6],>100 µM
same,MIC,[7],64.7 ± 2.1 µM
same,MIC,[8],5.8 ± 2.2 µM
colistin,MACI MIC,[1]; Acinetobacter baumannii (MACI),<0.5 µg/mL
same,KPC MIC,[2],64 µg/mL
same,MIC,[2],64 µg/mL
same,MIC,[10],< 0.5 µg/mL
same,ΣFIC,[3],0.08
"CCCCC(=O)N[C@@H](CCCNC(=N)N)C(=O)N1CCC[C@H]1C(=O)N[C@@H](CC(=O)O)C(=O)N[C@@H](CCCCN)C(=O)N1CCC[C@H]1C(=O)N[C@@H](CCCNC(=N)N)C(=O)N1CCC[C@H]1C(=O)N[C@@H](Cc1ccc(O)cc1)C(=O)N[C@@H](CC(C)C)C(=O)N1CCC[C@H]1C(=O)N[C@@H](CCCNC(=N)N)C(=O)N1CCC[C@H]1C(=O)N[C@@H](CCCNC(=N)N)C(=O)N1CCC[C@H]1C(=O)N1CCC[C@H]1C(=O)N[C@@H](CCCNC(=N)N)C(=O)N1CCC[C@H]1C(=O)N[C@H](C(=O)N[C@@H](CCCNC(=N)N)C(N)=O)C(C)C [Example 4, Va-RPDKPRPYLPRPRPPRPVR-NH2] (Pentanoyl-RPDKPRPYLPRPRPPRPVR-NH2)",MIC,[5],2.1 ± 0.0 µM
same,MIC,[6],>100 µM
same,MIC,[7],82.0 ± 5.0 µM
same,MIC,[8],5.6 ± 1.8 µM
"CC(C)C[C@H](NC(=O)[C@H](Cc1ccc(O)cc1)NC(=O)[C@@H]1CCCN1C(=O)[C@H](CCCNC(=N)N)NC(=O)[C@@H]1CCCN1C(=O)[C@H](CCCCN)NC(=O)[C@H](CC(=O)O)NC(=O)[C@@H]1CCCN1C(=O)[C@H](CCCNC(=N)N)NC(=O)C1(N)CCCCC1)C(=O)N1CCC[C@H]1C(=O)N[C@@H](CCCNC(=N)N)C(=O)N1CCC[C@H]1C(=O)N[C@@H](CCCNC(=N)N)C(=O)N1CCC[C@H]1C(=O)N1CCC[C@H]1C(=O)N[C@@H](CCCNC(=N)N)C(=O)N1CCC[C@H]1C(=O)N[C@H](C(=O)N[C@@H](CCCNC(=N)N)C(=O)O)C(C)C [Example 6, Chex-RPDKPRPYLPRPRPPRPVR-OH] (H-[Ac6c]RPDKPRPYLPRPRPPRPVR-OH)",MIC,[5],2.0 ± 0.1 µM
same,MIC,[6],>100 µM
same,MIC,[7],>100 µM
same,CC50,[11],48.1 ± 3.4 µM
same,MIC,[8],6.7 ± 1.3 µM
"CC(C)C[C@H](NC(=O)[C@H](Cc1ccc(O)cc1)NC(=O)[C@@H]1CCCN1C(=O)[C@H](CCCNC(=N)N)NC(=O)[C@@H]1CCCN1C(=O)[C@H](CCCCN)NC(=O)[C@H](CC(=O)O)NC(=O)[C@@H]1CCCN1C(=O)[C@H](CCCNC(=N)N)NC(=O)C1(N)CCCCC1)C(=O)N1CCC[C@H]1C(=O)N[C@@H](CCCNC(=N)N)C(=O)N1CCC[C@H]1C(=O)N[C@@H](CCCNC(=N)N)C(=O)N1CCC[C@H]1C(=O)N1CCC[C@H]1C(=O)N[C@@H](CCCNC(=N)N)C(=O)N1CCC[C@H]1C(=O)N[C@H](C(=O)N[C@@H](CCCNC(=N)N)C(=O)NN)C(C)C [Example 7, Chex-RPDKPRPYLPRPRPPRPVR-NH-NH2] (H-[Ac6c]RPDKPRPYLPRPRPPRPVR-NHNH2; N-terminus assumed)",MIC,[5],1.7 ± 0.1 µM
same,MIC,[6],52.5 ± 9.5 µM
same,MIC,[7],28.9 ± 2.7 µM
same,MIC,[8],4.0 ± 1.5 µM
